Data as given in US20230233617A1, “METHODS FOR DIFFERENTIATING STEM CELLS INTO DOPAMINERGIC PROGENITOR CELLS” (JZ CELL TECHNOLOGIES AB, priority 2020, published 2023).

Columns and labels:
β-catenin = experiment: β-CATENIN nuclear levels in cultures at 2 DDC; type: cell-based, human; conditions: dSMADi+SAG
Text: FIG. 2: Specification of NSC with ventral midbrain identity using RA and SHH signaling. (a) Schematic of hPSCs differentiation with timeline of treatment with RA and activator of SHH signaling (SAG) (top). Immunocytochemistry for indicated markers at 9 DDC in cultures differentiated in dSMADi+SAG-condition and pulsed with RA for 1-, 2- or 4-days (bottom). (b) Relative gene expression (FPKM) of indicated genes in 9 DDC cultures differentiated in dSMADi+SAG-conditions and treated with RA for the indicated time. (c) Heatmap and hierarchical clustering of differentially expressed genes of 9 DDC cultures differentiated in dSMADi+SAG-condition and treated with RA for the indicated time. (d) Schematic of gene expression profiles defining distinct ventral progenitors in the diencephalon (Di), midbrain (MB) and hindbrain (HB) positions. (e) Expression of genes associated with the indicated regional progenitors at 14 DDC in cultures differentiated in dSMADi+SAG+RA^2D condition. (f) Immunocytochemistry for β-CATENIN (left) and boxplots of β-CATENIN nuclear levels (right) in cultures at 2 DDC differentiated in dSMADi+SAG-condition (control) and treated with RA or CHIR99021. Boxplot, whiskers define 5th and 95th percentile. Asterisks, Student t test; **p<0.01, ***p<0.001. (g) Immunocytochemistry for the indicated markers in cultures at 14 DDC differentiated in dSMADi+SAG+RA^2D condition. […]

CYP26A1 = CYP26A1 expression in hPSC cultures; type: cell-based, human; conditions: 50-1,000 nM RA, dSMADi
Method: (d) Effect of RA concentration (50, 100, 300, 500 and 1,000 nM RA) on CYP26A1 expression in 1 DDC cultures differentiated in dSMADi-condition. (e) Temporal expression profile of CYP26A1 in cultures differentiated in dSMADi and pulsed with no RA or 300, 500 or 1,000 nM of RA for 2 days. […] (g) Relative gene expression of indicated genes in 9 DDC cultures differentiated in RA^1D+SAG condition and in the presence of different concentrations of the CYP26 inhibitor R115866. […] (c-e) values, mean±S.D.
Total RNA was isolated using Quick-RNA Mini Prep Plus kit (Zymo Research). cDNA was prepared using Maxima First Strand cDNA synthesis kit (Thermo Fisher Scientific). Quantitative Real-Time PCR was performed in a 7500 Fast Real Time PCR system thermal cycler using Fast SYBR Green PCR Master Mix (Applied Biosystems). Analysis of gene expression was performed using the 2-ΔΔCt method, where relative gene expression was normalized to GAPDH transcript levels.

## CC1=C(/C=C/C(C)=C/C=C/C(C)=C/C(=O)O)C(C)(C)CCC1 [RA, all-trans retinoic acid]
β-catenin
  β-catenin in nuclei: no accumulation of β-catenin in nuclei
CYP26A1
  CYP26A1 expression: concentration-dependent activation and adaptive temporal expression of CYP26A1
